Laboratory results taken from ChEMBL document CHEMBL4406855, “Design, synthesis and biological evaluation of N-(3-(1H-tetrazol-1-yl)phenyl)isonicotinamide derivatives as novel xanthine oxidase inhibitors” (Eur J Med Chem, 2019).

Target: Xanthine dehydrogenase/oxidase (Bos taurus, UniProt P80457)
Assay: Inhibition of bovine xanthine oxidase assessed as reduction in uric acid formation using xanthine as substrate preincubated for 10 mins followed by substrate addition measured at first 2 mins by spectrophotometric analysis

Sequence of Xanthine dehydrogenase/oxidase (P80457 whole entry): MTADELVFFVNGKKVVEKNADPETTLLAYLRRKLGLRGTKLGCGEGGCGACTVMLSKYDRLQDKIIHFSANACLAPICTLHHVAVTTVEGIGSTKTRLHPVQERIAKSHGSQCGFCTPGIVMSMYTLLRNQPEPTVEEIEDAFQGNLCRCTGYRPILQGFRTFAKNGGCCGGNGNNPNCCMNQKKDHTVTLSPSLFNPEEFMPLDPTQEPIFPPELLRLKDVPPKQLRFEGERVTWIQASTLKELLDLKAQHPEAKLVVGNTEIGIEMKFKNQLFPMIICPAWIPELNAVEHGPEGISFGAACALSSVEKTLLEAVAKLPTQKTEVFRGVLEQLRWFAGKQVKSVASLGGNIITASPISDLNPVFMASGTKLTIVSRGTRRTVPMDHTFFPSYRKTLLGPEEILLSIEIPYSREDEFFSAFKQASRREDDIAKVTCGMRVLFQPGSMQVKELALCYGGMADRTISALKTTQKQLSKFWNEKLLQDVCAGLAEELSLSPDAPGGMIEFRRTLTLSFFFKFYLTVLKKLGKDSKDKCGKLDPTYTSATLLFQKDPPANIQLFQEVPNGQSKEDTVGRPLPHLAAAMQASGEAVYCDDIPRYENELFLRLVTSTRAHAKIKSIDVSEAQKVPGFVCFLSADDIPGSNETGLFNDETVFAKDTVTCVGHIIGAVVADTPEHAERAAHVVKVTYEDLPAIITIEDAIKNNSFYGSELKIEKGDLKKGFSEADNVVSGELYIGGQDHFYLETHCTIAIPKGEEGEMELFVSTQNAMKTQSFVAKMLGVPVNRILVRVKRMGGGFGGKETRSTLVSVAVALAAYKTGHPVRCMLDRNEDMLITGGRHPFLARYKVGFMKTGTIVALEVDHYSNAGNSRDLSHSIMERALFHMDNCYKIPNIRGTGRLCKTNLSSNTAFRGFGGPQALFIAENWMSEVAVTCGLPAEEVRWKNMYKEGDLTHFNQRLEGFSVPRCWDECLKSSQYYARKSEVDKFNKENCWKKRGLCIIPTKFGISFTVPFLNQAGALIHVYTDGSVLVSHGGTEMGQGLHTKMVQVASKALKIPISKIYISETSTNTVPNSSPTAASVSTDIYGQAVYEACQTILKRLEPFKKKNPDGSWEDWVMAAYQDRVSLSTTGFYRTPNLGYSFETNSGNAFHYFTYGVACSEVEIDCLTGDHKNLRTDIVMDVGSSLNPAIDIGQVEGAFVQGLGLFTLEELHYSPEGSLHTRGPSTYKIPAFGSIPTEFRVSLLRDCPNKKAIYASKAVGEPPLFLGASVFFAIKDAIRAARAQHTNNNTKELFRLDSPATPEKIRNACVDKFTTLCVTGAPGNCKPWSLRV

Work on `N#Cc1ccccc1COc1ccc(NC(=O)c2ccncc2)cc1C#N` yielded an IC50 of 0.312 µM.
`N#Cc1cc(-c2n[nH]c(-c3ccncc3)n2)ccn1` [TOPIROXOSTAT] gave an IC50 of 0.021 µM.
